From patent EP0394118B1, “2,6-Aminoheptanedioic acid unsaturated derivatives, process for their preparation and their use as medicaments” (ROUSSEL-UCLAF, priority 1989, dated 1990)

Key:
Assay in all cases: Antibacterial activity in vitro, agar diffusion method in Davis Mingioli medium
Type in all cases: cell-based
[1] = tested on: Enterobacter cloacae 1321E; details: 100 mg/l aqueous solution in 9 mm wells, incubation 24 h at 37°C, read-out: zones d'inhibition (diamètre en mm)
Description: (§1) L'activité antibactérienne des produits revendiqués a été déterminée par la méthode de diffusion en milieu de Davis Mingioli additionné de 1% d'agar. Les géloses utilisées sont coulées en boîtes de Petri à 48°C, après ensemencement à […] au moyen de la souche bactérienne test. Les inocula proviennent d'une pré-culture de 24 heures en bouillon de Davis Mingioli. Après durcissement des géloses, les solutions aqueuses des produits étudiés sont introduites dans des puits (9 mm) creusés dans le milieu à l'aide d'un emporte-pièce. Les zones d'inhibition observées (diamètre en mm) sont mesurées après incubation de 24 heures à 37°C.

Escherichia Coli 078 = details: COLI078, 100 mg/l aqueous solution in 9 mm wells, incubation 24 h at 37°C, read-out: zones d'inhibition (diamètre en mm)
Description: as §1

Providencia sp. DU48 = details: 100 mg/l aqueous solution in 9 mm wells, incubation 24 h at 37°C, read-out: zones d'inhibition (diamètre en mm)
Description: as §1

[2] = tested on: Salmonella typhimurium MZ11; details: Salmonella enterica, 100 mg/l aqueous solution in 9 mm wells, incubation 24 h at 37°C, read-out: zones d'inhibition (diamètre en mm)
Description: as §1

`C=C(CC(N)C(=O)O)CC(N)(CC)C(=O)O` (stereo not drawn) [exemple 7, Acide 2,6-diamino 2-éthyl 4-méthylène heptanedioïque] gave a zone of inhibition at 100 µg/mL [1] of 29 mm, a zone of inhibition at 100 µg/mL (Escherichia Coli 078) of 18 mm and a zone of inhibition at 100 µg/mL (Providencia sp. DU48) of 28 mm. For the same compound, the zone of inhibition at 100 µg/mL [2] was 34 mm.

In the case of `C=CC(N)(CC(=C)CC(N)C(=O)O)C(=O)O` (stereo not drawn) [exemple 4, Acide 2,6-diamino 2-éthényl 4-méthylène heptanedioïque], the zone of inhibition at 100 µg/mL [1] was 26 mm, the zone of inhibition at 100 µg/mL (Escherichia Coli 078) was 17.5 mm and the zone of inhibition at 100 µg/mL (Providencia sp. DU48) was 29 mm. The zone of inhibition at 100 µg/mL [2] was 31 mm.

In the case of `C#CC(N)(CC(=C)CC(NCc1ccccc1)C(=O)O)C(=O)O` (stereo not drawn) [exemple 10, Acide 2-amino 2-éthynyl 4-méthylène 6-[(phénylméthyl)amino] heptanedioïque], the zone of inhibition at 100 µg/mL [2] was 19 mm.
